Patent publication US12617757B2, “Compounds and modules for inhibition of pre-miR-21 and their use in treatment of certain cancers” (University of Florida Research Foundation, Incorporated, priority 2019, dated 2026)

What was measured:
[1] = tested on: pre-miR-21 WT; experiment: Microscale thermophoresis (MST) binding to pre-miR-21 WT
Protocol: Microscale Thermophoresis (MST) Binding Measurements. MST fluorescent measurements were performed on a Monolith NT.115 system (NanoTemper Technologies) using the fluorescence of a miR-21 hairpin (A+U Bulge): (5′ Cy5-[…]-3′) (SEQ ID NO: 1) or a miR-21 base paired control (5′ Cy5-[…]-3′) (SEQ ID NO: 2) which were purchased from IDT with RNase-free HPLC purification and used without further purification. The RNA (5 nM) was diluted in 1×MST Buffer (8 mM Na2HPO4, 190 mM NaCl, 1 mM EDTA, and 0.05% (v/v) Tween-20) and folded by heating at 60° C. for 5 min, and slowly cooling to room temperature. Compounds 1 and 2 were diluted in 1×MST Buffer, followed by 1:3 dilutions in 1×MST Buffer containing 5 nM RNA. […] Fluorescence measurements (Ex: 605-645 nm, Em: 680-685 nm) were performed at 10% LED and 80% MST power, with a Laser-On time of 30 s and Laser-Off time of 5 s. The data were analyzed by thermophoresis analysis and fitted by the quadratic binding equation in MST analysis software (NanoTemper Technologies). Dissociation constants were then determined by curve fitting using a single-site model. Normalized MST signal was calculated by normalizing the fluorescent signals using the MST data of 1 binding to pre-miR-21 WT with the lowest signal as 0 and the highest fluorescent signal as 1.

[2] = tested on: MCF-10a cells; experiment: Boyden chamber invasion assay, MCF-10a; type: cell-based; details: for effect on invasion induced by overexpression of pre-miR-21: MCF-10a + pre-miR-21
Protocol: Boyden Chamber Invasion Assay. The MDA-MB-231, MDA-LM2, A375, A549, or MCF-10a cells (5×10^4) were seeded into Hanging Cell Culture Inserts for 24 well plates with uncoated membranes with 8.0 μm pores (Millicell) in serum free growth media. A 3 mg/mL layer (100 μL) of Matrigel (Fisher Scientific: CB40234) diluted with serum free growth media was prepared inside of each membrane. Cells were cultured as described above, with or without compound treatment, and allowed to invade towards complete growth media in the bottom well for 16-24 h before ending the experiment by removing the media in the bottom wells and inserts. The hanging cell culture inserts and bottom wells were washed twice with 1×PBS, gently shaking to mix. Excess liquid and cells inside the insert were removed with cotton swabs, after which 400 μL of 4% paraformaldehyde was placed into the bottom well and incubated for 20 min at room temperature to fix the cells. The wells and inserts were washed twice with 1×PBS and then treated with 400 μL of 0.1% crystal violet solution for 20 min at room temperature to stain the cells. The wells and inserts were washed twice with water, followed by one wash with 1×PBS. Inserts were dried with cotton swabs to remove extra stain and cells inside the insert, then were air-dried, followed by Brightfield microscopic analysis using a Leica DMI3000 B […] fluorescent microscope. Four different fields of view from each captured image were counted for crystal violet stained or unstained cells. Normalized cells invaded was calculated with equation 5 (Eq 5): […]
where stained cells represent cells counted with crystal violet stain observed in the compound treated or vehicle treated samples, respectively.

[3] = target: T1, RNase L (Homo sapiens, UniProt Q05823); experiment: In vitro RNase L oligomerization; type: biochemical; design: GST; made in house
T1 sequence (Q05823 1-741): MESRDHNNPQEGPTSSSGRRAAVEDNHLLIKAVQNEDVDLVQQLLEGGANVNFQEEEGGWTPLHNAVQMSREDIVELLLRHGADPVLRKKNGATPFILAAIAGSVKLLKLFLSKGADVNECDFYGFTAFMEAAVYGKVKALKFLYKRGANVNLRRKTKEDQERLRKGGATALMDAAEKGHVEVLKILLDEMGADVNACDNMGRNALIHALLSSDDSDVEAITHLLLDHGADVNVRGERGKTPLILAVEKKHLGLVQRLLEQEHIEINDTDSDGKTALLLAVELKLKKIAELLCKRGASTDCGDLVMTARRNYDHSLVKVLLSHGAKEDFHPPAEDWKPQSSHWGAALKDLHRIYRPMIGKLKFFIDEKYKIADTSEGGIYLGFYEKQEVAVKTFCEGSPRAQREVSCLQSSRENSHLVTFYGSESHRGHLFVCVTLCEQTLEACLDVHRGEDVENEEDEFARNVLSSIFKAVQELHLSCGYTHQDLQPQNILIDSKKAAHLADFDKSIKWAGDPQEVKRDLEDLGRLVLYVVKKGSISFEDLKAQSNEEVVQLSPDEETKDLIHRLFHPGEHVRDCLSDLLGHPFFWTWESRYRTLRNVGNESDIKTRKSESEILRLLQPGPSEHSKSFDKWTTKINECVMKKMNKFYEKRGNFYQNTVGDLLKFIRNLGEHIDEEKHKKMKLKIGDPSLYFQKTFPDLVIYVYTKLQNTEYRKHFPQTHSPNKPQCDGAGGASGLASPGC
Protocol: In Vitro RNase L Oligomerization. An aliquot of RNase L (3 μM) in 1×RNase L Buffer was supplemented with 10 mM MgCl2, fresh 7 mM β-mercaptoethanol, and 50 μM of ATP. RNase L oligomerization was performed as previously described^13 using dilutions of 2′-5′ A4 or compounds (2 or 5) prepared in 1×RNase L Buffer. A Western blot (described below) was run to resolve monomeric and oligomeric RNase L populations using RNase L primary antibody (1:5000 dilution; Cell Signaling Technology: D4B4J) overnight at 4° C. in 1×TBST containing 5% nonfat dry milk and 1:10000 anti-rabbit IgG horseradish peroxidase secondary antibody conjugate (Cell Signaling Technology: 7074S) in 1×TBST containing 5% nonfat dry milk for 2 h at room temperature.

| enhancement of pre-miR-21 binding over the compound of Formula 1 [1] | SMILES | effect on invasion induced by overexpression of pre-miR-21 [2] | effect on invasion induced by overexpression of pre-miR-21 ([2]; listed as Formula 5) | effect on invasion ([2]; MCF-10a, no pre-miR-21 overexpression) | oligomerization of RNase L [3] |
| --- | --- | --- | --- | --- | --- |
| 20 fold | CCCN(CC(=O)N(CCC)CC(=O)N(CCC)CC(=O)N(CC(N)=O)Cc1cn(CCCNC(=O)CCCOc2ccc(-c3nc4cc(-c5ccc(N6CCN(C)CC6)cc5)ccc4[nH]3)cc2)nn1)C(=O)CNCc1cn(CCCNC(=O)CCCOc2ccc(-c3nc4cc(-c5ccc(N6CCN(C)CC6)cc5)ccc4[nH]3)cc2)nn1 [Compound 2] |  |  |  |  |
|  | CCCN(CC(=O)N(CCC)CC(=O)N(CCC)CC(=O)N(CC(=O)NCCOCCOCCOCCOc1ccc(C=C2SC(Nc3ccccc3)=C(C(=O)OCC)C2=O)cc1O)Cc1cn(CCCNC(=O)CCCOc2ccc(-c3nc4cc(-c5ccc(N6CCN(C)CC6)cc5)ccc4[nH]3)cc2)nn1)C(=O)CN(Cc1cn(CCCNC(=O)CCCOc2ccc(-c3nc4cc(-c5ccc(N6CCN(C)CC6)cc5)ccc4[nH]3)cc2)nn1)C(C)=O [Compound 5] | decreased invasion | inhibited invasion | no effect on invasion | oligomerization of RNase L |
